Laboratory results published in patent US8106035B2, “25-SO2-substituted analogs of 1μ,25-dihydroxyvitamin D3” (Cytochroma Inc., priority 2002, dated 2012).

Tests used:
[1] = test system: normal human epidermal keratinocytes (NHEK); test: Human epidermal keratinocyte proliferation (HEK) assay, [3H]-thymidine; assay type: cell-based; conditions: together with calcitriol; 1, 10, 50 nM compound; three days
Method: (§1) NHEK were treated with specified concentrations of calcitriol and compound Va for three days. Cells were then incubated with [^3H]-thymidine for 18 h at 37° C. in a humidified atmosphere containing 5% CO2. Plates were harvested and radioactivity measured. Dose response curves in the absence of Va, 1 nM Va, 10 nM Va and 50 nM Va are shown.
Human Epidermal Keratinocyte Proliferation (HEK) Assay
• 1. HEK cell media • Supplement KGM media with additional reagents provided in the bullet kit as per supplier's instructions. • Add calcium chloride to final concentration of 0.3 mM. • 2. Calcitriol dilutions
(iii) Procedure: • 2. Cell culture • Thaw one vial of HEK cells containing at least 500 K, and divide into 5 25 cm^2 flasks with 5 ml HEK cell media. 24 h later, remove media and replenish with 5 ml fresh media. Change media again 48 h later. • 3. Preparation of cell suspension • On the day of the assay, wash the monolayer of HEK cells once with 1×PBS buffer (provided in reagent pack) and then trypsinize for 5 min at 37° C. Add trypsin neutralizing solution (provided in reagent pack). Collect cells into tube, centrifuge cells (500×g, 5 min) and resuspend in HEK cell media. Count cells and adjust density to 150,000 cells/ml. Dilute cells further 1:30 with HEK cell media. • 2. Cell plating • Add 150 μl of cell suspension to appropriately labelled wells of a 96-well plate. Incubate plate for 48 h at 37° C. in a humidified atmosphere containing 5% CO2 for adherence of cells to wells. • 3. Compound addition • Add 25 μl of calcitriol (10^−6 to 10^−11 M, final) and add 25 μl of substrate (10^−7 to 10^−10 M, final) and incubate for 32 hours at 37° C. in a humidified atmosphere containing 5% CO2. • 4. Cell harvesting and counting • Add 0.2 μCi/well of [^3H]-thymidine in 20 μl of HEK cell media to each well. Incubate plates for 18 h at 37° C. in a humidified atmosphere containing 5% CO2. Aspirate media and wash with 1×PBS. Trypsinize cells for 30 min at 37° C. in a humidified atmosphere containing 5% CO2. Harvest cells onto filter plates using Tomtec cell harvester as per manufacturer's instructions. Add 25 μl scintillation fluid per well. Measure radioactivity using a scintillation counter. All values were normalized for background. Results; See FIGS. 1-4

MCF-7 cells = test: [3H]-thymidine proliferation assay with MCF-7 cells; assay type: cell-based; conditions: together with calcitriol; 1, 10, 50 nM compound; three days
Method: as §1, with “MCF-7 cells” for “NHEK”, “6” for “18”
[^3H]-thymidine Proliferation Assay with MCF-7 Cells
• 1. Preparation of cell suspension • When MCF-7 cells are 70-80% confluent, aspirate growth media. Wash the cells with 1×PBS. Trypsinize with trypsin-EDTA from the plate, collect cells from the tissue culture flask, centrifuged (500×g, 5 min) and resuspended in growth media. • 2. Cell plating. • Count the cells and adjust the cell density to 25, 000/ml. Add 200 μl per well in a 96 well plate. Incubate plate for 24 h at 37° C. in a humidified atmosphere plus 5% CO2. Aspirate used media and replace with […] per well with proliferation media. • 3. Substrate addition. • Add 25 μl of 1α,25(OH)2D3 (final concentration 10^−6 M, 10^−7 M, 10^−8 M, 10^−9 M, 10^−10 M, 10^−11 M) into each designated well. Add 25 μl of Substrate (final concentration 10^−7 M, 5×10^−8 M, 10^−8 M or 10^−9 M) into each designated well. Incubate plates for 3 days at 37° C. in a humidified atmosphere plus 5% CO2. • 4. ^3H-Thymidine incorporation. • Add ^3H-thymidine at 0.02 μCi per well and incubate at 37° C. in a humidified atmosphere plus 5% CO2 for 6 h. • 5. Plate Harvesting. • Aspirate all media and wash cells with 1×PBS. Trypsinize cells for 30 min at 37° C. in a humidified atmosphere plus 5% CO2. Harvest cells onto a 96 well filter plate (Millipore) using a Tomtec Cell Harvestor, according to manufacturers instructions. • 6. Scintillation Counting. • Add 25 μt of scintillation fluid per well. Count the plate using a scintillation counter. Results: See FIGS. 5-9.

SCC-25 cells = test: [3H]-thymidine proliferation assay with SCC-25 cells; assay type: cell-based; conditions: together with calcitriol; 1, 10, 50 nM compound; three days
Method: as §1, with “SCC-25 cells” for “NHEK”, “6” for “18”
[^3H]-thymidine Proliferation Assay with SCC-25 Cells
• 1. Preparation of cell suspension • When SCC-25 cells are 70-80% confluent, aspirate media. Wash the cells with 1×PBS. Trypsinize with trypsin-EDTA from the plate, collect cells from the tissue culture flask, centrifuged (500×g, 5 min) and resuspended in media. • 2. Cell plating. • Count the cells and adjust the cell density to 10,000/ml. Add 200 μl per well in a 96 well plate. Incubate plate for 24 h at 37° C. in a humidified atmosphere plus 5% CO2. Aspirate used media and replace with 150 μl per well with media. • 3. Compound addition. • Add 25 μl of 1α,25(OH)2D3 (final concentration 10^−6 M, 10^−7 M, 10^−8 M, 10^−9 M, 10^−10 M, 10^−11 M) into each designated well. Add 25 μL of Substrate (final concentration 10^−7 M, 5×10^−8 M, 10^−8 M or 10^−9 M) into each designated well. Incubate plates for 3 days at 37° C. in a humidified atmosphere plus 5% CO2. • 4. ^3H-Thymidine incorporation. • Add ^3H-thymidine at 0.02 μCi per well and incubate at 37° C. in a humidified atmosphere plus 5% CO2 for 6 h. • 5. Plate Harvesting. • Aspirate all media and wash cells with 1×PBS. Trypsinize cells for 30 min at 37° C. in a humidified atmosphere plus 5% CO2. Harvest cells onto a 96 well filter plate (Millipore) using a Tomtec Cell Harvestor, according to manufacturers instructions. • 6. Scintillation Counting. • Add 25 μl of scintillation fluid per well. Count the plate using a scintillation counter. Results: See FIGS. 10-13.

CYP24 = target: T1, CYP24 (Homo sapiens, UniProt Q07973); test: In vitro test for selective inhibition of CYP24 (standard protocol, ketoconazole control); assay type: biochemical; conditions: in comparison to CYP27A1 and CYP27B1
T1 sequence (Q07973 36-514): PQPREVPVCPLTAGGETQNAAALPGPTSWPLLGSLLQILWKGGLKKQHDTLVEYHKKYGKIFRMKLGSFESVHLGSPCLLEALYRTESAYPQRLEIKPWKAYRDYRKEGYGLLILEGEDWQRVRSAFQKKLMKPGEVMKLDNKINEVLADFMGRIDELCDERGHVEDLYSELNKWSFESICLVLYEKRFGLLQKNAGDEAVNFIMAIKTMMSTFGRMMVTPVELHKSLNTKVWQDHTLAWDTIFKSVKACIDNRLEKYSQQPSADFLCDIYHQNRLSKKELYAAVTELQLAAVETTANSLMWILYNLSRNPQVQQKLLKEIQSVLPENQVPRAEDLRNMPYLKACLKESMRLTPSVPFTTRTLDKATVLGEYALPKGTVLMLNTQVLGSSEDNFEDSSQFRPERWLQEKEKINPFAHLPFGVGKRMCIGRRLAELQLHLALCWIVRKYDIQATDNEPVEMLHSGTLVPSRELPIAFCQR
Method: Selectively inhibiting the cytochrome P450 enzymatic pathway, through which 1α,25-dihydroxyvitamin D3 is catabolized (mainly via C-24 hydroxylation), is one important way to prolong the lifetime of this hormone, or analogs thereof. Therefore, the compounds of Formula I were tested in vitro, using a standard protocol, for their ability to inhibit specifically CYP24, an enzyme responsible for 24-hydroxylation of 1α,25-dihydroxyvitamin D3. Antimycotic ketoconazole, a drug used clinically for chemotherapy of human prostate cancer (Trachtenberg, J. et al. J. Urol. 1984, J32, 61-63), was used as a control standard for inhibition of CYP24.

[2] = Antiproliferative activity of the compound of Formula VI (test not specified); assay type: cell-based; conditions: present invention
Source text: The preparation of the compound of Formula VI was previously reported (Wang, Q. PhD Thesis, 2000, Johns Hopkins University). The ability of the compound of Formula VI to selectively modulate CYP24 activity has not been reported. […] Accordingly, the present invention is the first to find that the compound of Formula VI is useful in the methods of the invention.

In the case of C=C1/C(=C\C=C2/CCC[C@]3(C)C([C@H](C)CCC(C)(C)S(=O)(=O)C(C)(C)C)=CCC23)C[C@@H](O)C[C@@H]1O (some centres unmarked) [IVa, 16-ene-24-dimethyl-25-SO2-TB1], the “inhibition of NHEK ([3H]-thymidine incorporation)” value (“inhibition of NHEK” for short) [1] is reported as “act to inhibit normal human epidermal keratinocytes”, the “inhibition of MCF-7 cells ([3H]-thymidine incorporation)” value (“inhibition of MCF-7 cells” for short) (MCF-7 cells) is reported as “act to inhibit MCF-7 cells” and the “inhibition of SCC-25 cells ([3H]-thymidine incorporation)” value (“inhibition of SCC-25 cells” below) (SCC-25 cells) is reported as “act to inhibit SCC-25 cells”.
In the case of C[C@H](C/C=C(\F)S(=O)(=O)C(C)(C)C)C1=CC[C@H]2/C(=C/C=C3C[C@@H](O)C[C@H](O)C3)CCC[C@]12C [Ia(xi)], the “inhibition of MCF-7 cells” value (MCF-7 cells) is reported as “act to inhibit MCF-7 cells”.
In the case of C=C1/C(=C\C=C2/CCC[C@]3(C)C([C@H](C)C/C=C(/F)S(=O)(=O)C(C)(C)C)=CC[C@@H]23)C[C@@H](O)C[C@@H]1O [Ib(v)], the “inhibition of NHEK” value [1] is reported as “act to inhibit normal human epidermal keratinocytes”, the “inhibition of MCF-7 cells” value (MCF-7 cells) is reported as “act to inhibit MCF-7 cells” and the “inhibition of SCC-25 cells” value (SCC-25 cells) is reported as “act to inhibit SCC-25 cells”.
For C=C1/C(=C\C=C2/CCC[C@@]3(C)C2CC[C@@H]3[C@H](C)CCC2(S(=O)(=O)C(C)(C)C)CC2)C[C@@H](O)C[C@@H]1O (some centres unmarked) [IIa], the “inhibition of NHEK” value [1] was “act to inhibit normal human epidermal keratinocytes” and the “inhibition of SCC-25 cells” value (SCC-25 cells) was “act to inhibit SCC-25 cells”.
In the case of C=C1/C(=C\C=C2/CCCC3(C)C(C(C)CCC4(S(=O)(=O)C(C)(C)C)CC4)=CCC23)CC(O)CC1O (centres unmarked) [Formula VI], the “selective inhibition of CYP24 activity” value (CYP24) is reported as “shows selective inhibition of CYP24 activity” and the antiproliferative activity [2] is reported as “does have antiproliferative activity”.
For C=C1/C(=C\C=C2/CCC[C@]3(C)[C@@H]([C@H](C)CCCS(=O)(=O)c4ccc(F)cc4)CC[C@@H]23)C[C@@H](O)C[C@@H]1O [Va], the “inhibition of NHEK” value [1] was “act to inhibit normal human epidermal keratinocytes”, the “inhibition of MCF-7 cells” value (MCF-7 cells) was “act to inhibit MCF-7 cells” and the “inhibition of SCC-25 cells” value (SCC-25 cells) was “act to inhibit SCC-25 cells”.
